One experiment has as its system X. nematophila WT. In kind it is cell-based, Xenorhabdus nematophila F1. How it is done: (§1) Bacteria were routinely grown in Lysogeny Broth (Sigma-Aldrich) medium at 28°C (Xenorhabdus, S. maltophilia, P. protegens, Ochrobactrum sp., Achromobacter sp., A. faecalis, Pseudochrobactrum sp., Brevundimonas sp., E. mundtii, and D. rugosa) or 37°C (Escherichia coli and M. luteus). When required, antibiotics were used at the following final concentrations: gentamicin (Sigma-Aldrich), 20 µg mL^−1 and chloramphenicol (Sigma-Aldrich), 20 µg mL^−1 for E. coli strains and 15 µg mL^−1 for X. nematophila (or 8 µg mL^−1 for allelic exchange).
(§2) MICs were determined in accordance with CLSI guidelines ([73]) with the following modifications: 5 mL of MHB broth (Bio-Rad) was inoculated with an overnight culture in LB broth and grown to a 0.6 < OD600 < 0.9. The inoculum for the microplate was prepared as described in the CLSI guide, with dilution in MHB to approximately 10^4 CFU mL^−1. Ninety-six-well low-binding plates were incubated for 48 h at 28°C with slow shaking. The peptides used in the analyses were supplied by the following providers: cecropin A (Sigma-Aldrich), cecropin B1 (NeoMPS S.A.) ([74]), cecropin C (Proteogenix), cecropin P1 (Sigma-Aldrich), drosocin (Eurogentec), colistin (Sigma-Aldrich), polymyxin B (Sigma-Aldrich), and NOSO 95C (odilorhabdin, Nosopharm S.A.). Synthetic PAX1′, PAX2′, and PAX7 were provided by the SynBio3 platform (IBMM, Montpellier, France), and their structure is shown in Fig. S1.

The test system of the next experiment is X. nematophila ∆paxA. Format: cell-based, Xenorhabdus nematophila F1. As to conditions: CLSI with modifications, MHB broth, approx. 10^4 CFU mL^−1, 96-well low-binding plates, 48 h at 28°C, slow shaking. The procedure:
as §1
The ΔpaxA mutant was constructed using the same experimental strategy as for the construction of the ΔngrA mutant from the WT strain X. nematophila F1 ([37]). The upstream and downstream regions of the paxA gene were amplified by PCR with the L-PCR1-paxA-SalI and R-PCR1-paxA-BamHI primers for the upstream region (621 bp) and the L-PCR2-paxA-BamHI and R-PCR2-paxA-SpeI primers for the downstream region (601 bp). The two fragments obtained were inserted, together with the 3.8 kb BamHI fragment ΩCam cassette from pHP45-ΩCm, conferring resistance to chloramphenicol, into pJQ200SK digested with SalI and SpeI for insertion of the ΩCam cassette between the two PCR fragments. The resulting plasmid, pJQ-paxA::ΩCm, was used to transform E. coli WM3064 and was introduced into X. nematophila F1 by mating. Allelic exchange was performed as previously described ([68]). ΩCam insertion was confirmed by PCR analysis using primers L-paxTA and R-verif-pax. The absence of PAX peptide products was assessed by mass spectrometry analysis, as described below. The clone obtained was called ΔpaxA.
as §2

The subject of another experiment is X. nematophila ∆ngrA. Kind of experiment: MIC assay of antimicrobial peptides on X. nematophila ∆ngrA. Format: cell-based, Xenorhabdus nematophila F1. The note with it: CLSI with modifications, MHB broth, approx. 10^4 CFU mL^−1, 96-well low-binding plates, 48 h at 28°C, slow shaking. The procedure:
as §1, §2

The next experiment has as its system Achromobacter sp. D7.1. Format: cell-based. As to conditions: 48 h. The procedure:
as §1, §2

A further experiment has as its system Alcaligenes faecalis SC. Format: cell-based. The note with it: 48 h. The procedure:
as §1, §2

The next experiment deals with Brevundimonas sp. ALL3. Format: cell-based. As to conditions: 48 h. How it is done:
as §1, §2

For another experiment, the system named is Diutina rugosa GC. Format: cell-based. As to conditions: 48 h. How it is done: as §1, §2
The subject of a further experiment is Enterococcus mundtii SP. In kind it is cell-based. As to conditions: 48 h. How it is done: as §1, §2
Experiment [1] deals with Micrococcus luteus CIP103430. Format: cell-based. As to conditions: CIP103430, 48 h. How it is done: as §1, §2
For the next experiment, the system named is Ochrobactrum sp. ALL4. In kind it is cell-based. As to conditions: 48 h. How it is done: as §1, §2
For experiment [2], the system named is Pseudochrobactrum sp. AL3. In kind it is cell-based. As to conditions: 48 h. How it is done: as §1, §2
Experiment [3] concerns Pseudomonas protegens PPSC10. In kind it is cell-based. The note with it: 48 h. How it is done: as §1, §2
The test system of experiment [4] is Stenotrophomonas maltophilia ALL5. Format: cell-based. The note with it: 48 h. The procedure:
as §1, §2

[5] abbreviates: X. nematophila WT, CLSI with modifications, MHB broth, approx. 10^4 CFU mL^−1, 96-well low-binding plates, 48 h at 28°C, slow shaking.

Values after ≈ are worked out from the molar mass of the structure shown. Where two headings read alike, the source gives them in different places. Where a SMILES comes first, the peptide text is derived from it. Bridges are numbered along the chain shown (N, C = ends). Where no end group is shown, it is not given here. [ ]: non-standard residue; d: D form. The star is where a group is joined. Hexadecanoyl(3R-OH) = CCCCCCCCCCCCC[C@@H](O)CC(=O)*; Tetradecanoyl(3R-OH) = CCCCCCCCCCC[C@@H](O)CC(=O)*; X1 = CC[C@H](C)CCCCC(=O)*; Dab = NCC[C@H](N)C(=O)O

As to `CC[C@H](C)CCCCC(=O)N[C@@H](CCN)C(=O)N[C@H](C(=O)N[C@@H](CCN)C(=O)N[C@H]1CCNC(=O)[C@H]([C@@H](C)O)NC(=O)[C@H](CCN)NC(=O)[C@H](CCN)NC(=O)[C@H](CC(C)C)NC(=O)[C@@H](CC(C)C)NC(=O)[C@H](CCN)NC1=O)[C@@H](C)O` [Colistin, colistin] (X1-[Dab]T[Dab][Dab][Dab][dL]L[Dab][Dab]T; lactam 4-C (inferred); N-terminus assumed), the values for the Minimum inhibitory concentration with X. nematophila WT (setting [5]), with X. nematophila ∆paxA and in the experiment with X. nematophila ∆ngrA were 3.9 µg/mL (≈ 3.33 µM), 1.95 µg/mL (≈ 1.67 µM) and 3.9 µg/mL (≈ 3.33 µM), respectively.

Take `CCCCCCCCCCC[C@@H](O)CC(=O)NCC(=O)N[C@@H](CCCNC(=N)N)C(=O)N[C@@H]1CCCCNC(=O)[C@H](CCCCN)NC(=O)[C@@H](CCCCN)NC(=O)[C@@H](CCCCN)NC(=O)[C@H](CCCCN)NC1=O` [Synthetic PAX2′] ({Tetradecanoyl(3R-OH)}-GR[dK]K[dK][dK]K; lactam 3-C (inferred)): the Minimum inhibitory concentration in the experiment on X. nematophila WT (48 h) is 187.5 µg/mL (≈ 174 µM); in the experiment on X. nematophila ∆paxA, 375 µg/mL (≈ 347 µM); in the experiment on X. nematophila ∆ngrA, 375 µg/mL (≈ 347 µM); with Achromobacter sp. D7.1, 62.5 µg/mL (≈ 57.8 µM); in the experiment with Alcaligenes faecalis SC it was 125 µg/mL (≈ 116 µM); with Brevundimonas sp. ALL3 it was 62.5 µg/mL (≈ 57.8 µM). The Minimum inhibitory concentration with Diutina rugosa GC was 62.5 µg/mL (≈ 57.8 µM); with Enterococcus mundtii SP it was 31.25 µg/mL (≈ 28.9 µM); in experiment [1], 1.95 µg/mL (≈ 1.8 µM); with Ochrobactrum sp. ALL4, 62.5 µg/mL (≈ 57.8 µM); in experiment [2], 125 µg/mL (≈ 116 µM); in experiment [3] it was 125 µg/mL (≈ 116 µM). In experiment [4], this compound registered a Minimum inhibitory concentration of 125 µg/mL (≈ 116 µM).

With cecropin B1, the Minimum inhibitory concentration in the experiment on X. nematophila WT (setting [5]), in the experiment on X. nematophila ∆paxA and in the experiment on X. nematophila ∆ngrA was 6.25 µg/mL throughout.

Regarding `CCCCCCCCCCCCC[C@@H](O)CC(=O)NCC(=O)N[C@@H](CCCCN)C(=O)N[C@@H]1CCCCNC(=O)[C@H](CCCCN)NC(=O)[C@@H](CCCCN)NC(=O)[C@@H](CCCCN)NC(=O)[C@H](CCCCN)NC1=O` [Synthetic PAX7] ({Hexadecanoyl(3R-OH)}-GK[dK]K[dK][dK]K; lactam 3-C (inferred)), the Minimum inhibitory concentration in the experiment with X. nematophila WT (setting [5]) turned out to be 187.5 µg/mL (≈ 174 µM); with X. nematophila ∆ngrA it was 375 µg/mL (≈ 347 µM); with Achromobacter sp. D7.1, 62.5 µg/mL (≈ 57.8 µM); with Alcaligenes faecalis SC it was 125 µg/mL (≈ 116 µM); in the experiment on Brevundimonas sp. ALL3, 31.25 µg/mL (≈ 28.9 µM); in the experiment on Diutina rugosa GC, 62.5 µg/mL (≈ 57.8 µM). The Minimum inhibitory concentration in the experiment on Enterococcus mundtii SP is 15.63 µg/mL (≈ 14.5 µM); in experiment [1] it was 0.49 µg/mL (≈ 0.453 µM); with Ochrobactrum sp. ALL4, 62.5 µg/mL (≈ 57.8 µM); in experiment [2], 62.5 µg/mL (≈ 57.8 µM); in [3] it was 62.5 µg/mL (≈ 57.8 µM); in experiment [4], 125 µg/mL (≈ 116 µM).

As to “GKPRPYSPRPTSHPRPIRV [Drosocin, drosocin]”, the Minimum inhibitory concentration in the experiment on X. nematophila WT (48 h) is above 50 µg/mL.

Regarding `CCCCCCCCCCC[C@@H](O)CC(=O)NCC(=O)N[C@@H](CCCCN)C(=O)N[C@@H]1CCCCNC(=O)[C@H](CCCCN)NC(=O)[C@@H](CCCCN)NC(=O)[C@@H](CCCCN)NC(=O)[C@H](CCCCN)NC1=O` [Synthetic PAX1′] ({Tetradecanoyl(3R-OH)}-GK[dK]K[dK][dK]K; lactam 3-C (inferred)), the Minimum inhibitory concentration was >1,500 µg mL^−1 in the experiment with X. nematophila WT (48 h); above 250 µg/mL in the experiment with Achromobacter sp. D7.1; above 250 µg/mL with Alcaligenes faecalis SC; 31.25 µg/mL (≈ 29.7 µM) in the experiment with Brevundimonas sp. ALL3; 25 µg/mL (≈ 23.8 µM) in the experiment with Diutina rugosa GC; 125 µg/mL (≈ 119 µM) in the experiment with Enterococcus mundtii SP. Further, the Minimum inhibitory concentration is 3.9 µg/mL (≈ 3.71 µM) in experiment [1]; above 250 µg/mL with Ochrobactrum sp. ALL4; above 250 µg/mL in [2]; above 250 µg/mL in experiment [3]; above 250 µg/mL in experiment [4].

Take `CC[C@H](C)CCCCC(=O)N[C@@H](CCN)C(=O)N[C@H](C(=O)N[C@@H](CCN)C(=O)N[C@H]1CCNC(=O)[C@H]([C@@H](C)O)NC(=O)[C@H](CCN)NC(=O)[C@H](CCN)NC(=O)[C@H](CC(C)C)NC(=O)[C@@H](Cc2ccccc2)NC(=O)[C@H](CCN)NC1=O)[C@@H](C)O` [Polymyxin B, polymyxin B] (X1-[Dab]T[Dab][Dab][Dab][dF]L[Dab][Dab]T; lactam 4-C (inferred); N-terminus assumed): the Minimum inhibitory concentration in the experiment with X. nematophila WT (setting [5]), with X. nematophila ∆paxA and with X. nematophila ∆ngrA was 0.245 µg/mL (≈ 0.204 µM) throughout.

For the compound cecropin C, the Minimum inhibitory concentration in the experiment with X. nematophila WT (setting [5]) stood at 12.5 µg/mL; with X. nematophila ∆paxA, 12.5 µg/mL; with X. nematophila ∆ngrA it was 25 µg/mL.

Consider “SWLSKTAKKLENSAKKRISEGIAIAIQGGPR [Cecropin P1, cecropin P1]”, for which the Minimum inhibitory concentration was above 12.5 µg/mL in the experiment on X. nematophila WT (setting [5]) and 12.5 µg/mL in the experiment on X. nematophila ∆ngrA.
